Laboratory results published in PubChem BioAssay (NCI).
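Grown in 96-well plates, cells were treated for 48 hours with each compound at five concentrations. Insufficient inhibition: endpoint recorded as highest concentration tested. Definition used: TGI = concentration required for complete inhibition of growth.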

Assays:
Test in all cases: NCI anticancer screen, dose series, 48 h
786-0 renal = tested on: 786-0 renal
A498 renal = tested on: A498 renal
A549 NSCLC = tested on: A549 NSCLC
ACHN renal = tested on: ACHN renal
CAKI-1 renal = tested on: CAKI-1 renal
CCRF-CEM leukemia = tested on: CCRF-CEM leukemia
COLO 205 colon = tested on: COLO 205 colon
DMS 114 small cell lung = tested on: DMS 114 small cell lung
DMS 273 small cell lung = tested on: DMS 273 small cell lung
EKVX NSCLC = tested on: EKVX NSCLC
HCC-2998 colon = tested on: HCC-2998 colon
HCT-116 colon = tested on: HCT-116 colon
HCT-15 colon = tested on: HCT-15 colon
HL-60(TB) leukemia = tested on: HL-60(TB) leukemia
HOP-62 NSCLC = tested on: HOP-62 NSCLC
HOP-92 NSCLC = tested on: HOP-92 NSCLC
HT29 colon = tested on: HT29 colon
IGROV1 ovarian = tested on: IGROV1 ovarian
K-562 leukemia = tested on: K-562 leukemia
KM12 colon = tested on: KM12 colon
KM20L2 colon = tested on: KM20L2 colon
LOX IMVI melanoma = tested on: LOX IMVI melanoma
LXFL 529 NSCLC = tested on: LXFL 529 NSCLC
M14 melanoma = tested on: M14 melanoma
M19-MEL melanoma = tested on: M19-MEL melanoma
MALME-3M melanoma = tested on: MALME-3M melanoma
MOLT-4 leukemia = tested on: MOLT-4 leukemia
NCI-H226 lung = tested on: NCI-H226 lung
NCI-H23 lung = tested on: NCI-H23 lung
NCI-H460 lung = tested on: NCI-H460 lung
NCI-H522 lung = tested on: NCI-H522 lung
OVCAR-3 ovarian = tested on: OVCAR-3 ovarian
OVCAR-4 ovarian = tested on: OVCAR-4 ovarian
OVCAR-5 ovarian = tested on: OVCAR-5 ovarian
OVCAR-8 ovarian = tested on: OVCAR-8 ovarian
RPMI-8226 leukemia = tested on: RPMI-8226 leukemia
RXF 393 renal = tested on: RXF 393 renal
RXF-631 renal = tested on: RXF-631 renal
SF-268 CNS = tested on: SF-268 CNS
SF-295 CNS = tested on: SF-295 CNS
SF-539 CNS = tested on: SF-539 CNS
SK-MEL-2 melanoma = tested on: SK-MEL-2 melanoma
SK-MEL-28 melanoma = tested on: SK-MEL-28 melanoma
SK-MEL-5 melanoma = tested on: SK-MEL-5 melanoma
SK-OV-3 ovarian = tested on: SK-OV-3 ovarian
SN12C renal = tested on: SN12C renal
SNB-19 CNS = tested on: SNB-19 CNS
SNB-75 CNS = tested on: SNB-75 CNS
SNB-78 CNS = tested on: SNB-78 CNS
SR leukemia = tested on: SR leukemia
SW-620 colon = tested on: SW-620 colon
TK-10 renal = tested on: TK-10 renal
U251 CNS = tested on: U251 CNS
UACC-257 melanoma = tested on: UACC-257 melanoma
UACC-62 melanoma = tested on: UACC-62 melanoma
UO-31 renal = tested on: UO-31 renal
XF 498 CNS = tested on: XF 498 CNS
DLD-1 colon = tested on: DLD-1 colon
HOP-18 NSCLC = tested on: HOP-18 NSCLC

For `Cc1cc2c(cc1C)[n+](=O)c(C(=O)CC(=O)C(=O)Nc1ccccc1C(C)C)c(C)n2[O-]`, the TGI (786-0 renal) was greater than 100 µM, the TGI (A498 renal) was greater than 100 µM and the TGI (A549 NSCLC) was greater than 100 µM. The TGI (ACHN renal) was greater than 100 µM, the TGI (CAKI-1 renal) was greater than 100 µM and the TGI (CCRF-CEM leukemia) was greater than 100 µM. The TGI (COLO 205 colon) was greater than 100 µM, the TGI (DMS 114 small cell lung) was greater than 100 µM and the TGI (DMS 273 small cell lung) was greater than 100 µM. The TGI (EKVX NSCLC) was greater than 100 µM, the TGI (HCC-2998 colon) was greater than 100 µM and the TGI (HCT-116 colon) was greater than 100 µM. It also gave a TGI (HCT-15 colon) greater than 100 µM, a TGI (HL-60(TB) leukemia) greater than 100 µM and a TGI (HOP-62 NSCLC) greater than 100 µM. The TGI (HOP-92 NSCLC) was greater than 100 µM, the TGI (HT29 colon) was greater than 100 µM and the TGI (IGROV1 ovarian) was greater than 100 µM. The TGI (K-562 leukemia) was greater than 100 µM, the TGI (KM12 colon) was greater than 100 µM and the TGI (KM20L2 colon) was greater than 100 µM. The TGI (LOX IMVI melanoma) was greater than 100 µM, the TGI (LXFL 529 NSCLC) was greater than 100 µM and the TGI (M14 melanoma) was greater than 100 µM. It also gave a TGI (M19-MEL melanoma) greater than 100 µM, a TGI (MALME-3M melanoma) greater than 100 µM and a TGI (MOLT-4 leukemia) greater than 100 µM. The TGI (NCI-H226 lung) was greater than 100 µM, the TGI (NCI-H23 lung) was greater than 100 µM and the TGI (NCI-H460 lung) was greater than 100 µM. For the same compound, the TGI (NCI-H522 lung) was greater than 100 µM, the TGI (OVCAR-3 ovarian) was greater than 100 µM and the TGI (OVCAR-4 ovarian) was greater than 100 µM. The TGI (OVCAR-5 ovarian) was greater than 100 µM, the TGI (OVCAR-8 ovarian) was greater than 100 µM and the TGI (RPMI-8226 leukemia) was greater than 100 µM. The TGI (RXF 393 renal) was greater than 100 µM, the TGI (RXF-631 renal) was greater than 100 µM and the TGI (SF-268 CNS) was greater than 100 µM. The TGI (SF-295 CNS) was greater than 100 µM, the TGI (SF-539 CNS) was greater than 100 µM and the TGI (SK-MEL-2 melanoma) was greater than 100 µM. It also gave a TGI (SK-MEL-28 melanoma) greater than 100 µM, a TGI (SK-MEL-5 melanoma) greater than 100 µM and a TGI (SK-OV-3 ovarian) greater than 100 µM. It also gave a TGI (SN12C renal) greater than 100 µM, a TGI (SNB-19 CNS) greater than 100 µM and a TGI (SNB-75 CNS) greater than 100 µM. For the same compound, the TGI (SNB-78 CNS) was greater than 100 µM, the TGI (SR leukemia) was greater than 100 µM and the TGI (SW-620 colon) was greater than 100 µM. It also gave a TGI (TK-10 renal) greater than 100 µM, a TGI (U251 CNS) greater than 100 µM and a TGI (UACC-257 melanoma) of 5.82 µM. For the same compound, the TGI (UACC-62 melanoma) was greater than 100 µM, the TGI (UO-31 renal) was greater than 100 µM and the TGI (XF 498 CNS) was greater than 100 µM.
Work on `CC(=O)Oc1ccc(Nn2c3ccccc3c3ccccc32)c(C)c1` yielded a TGI (786-0 renal) of 41.7 µM, a TGI (A549 NSCLC) greater than 100 µM and a TGI (CCRF-CEM leukemia) greater than 100 µM. It also gave a TGI (COLO 205 colon) greater than 100 µM, a TGI (DLD-1 colon) greater than 100 µM and a TGI (DMS 114 small cell lung) of 79.8 µM. The TGI (DMS 273 small cell lung) was 51.9 µM, the TGI (HCC-2998 colon) was 79.5 µM and the TGI (HCT-116 colon) was greater than 100 µM. It also gave a TGI (HCT-15 colon) of 82.4 µM, a TGI (HL-60(TB) leukemia) of 63.2 µM and a TGI (HOP-18 NSCLC) of 75.8 µM. For the same compound, the TGI (HOP-62 NSCLC) was greater than 100 µM, the TGI (HOP-92 NSCLC) was 64 µM and the TGI (IGROV1 ovarian) was 94.2 µM. The TGI (K-562 leukemia) was greater than 100 µM, the TGI (KM12 colon) was greater than 100 µM and the TGI (KM20L2 colon) was 78.9 µM. It also gave a TGI (LXFL 529 NSCLC) greater than 100 µM, a TGI (M14 melanoma) of 74.3 µM and a TGI (M19-MEL melanoma) greater than 100 µM. The TGI (MALME-3M melanoma) was greater than 100 µM, the TGI (MOLT-4 leukemia) was 77.7 µM and the TGI (NCI-H23 lung) was greater than 100 µM. The TGI (NCI-H460 lung) was greater than 100 µM, the TGI (NCI-H522 lung) was 46.3 µM and the TGI (OVCAR-3 ovarian) was greater than 100 µM. It also gave a TGI (OVCAR-5 ovarian) greater than 100 µM, a TGI (OVCAR-8 ovarian) of 78.6 µM and a TGI (RPMI-8226 leukemia) of 58.5 µM. The TGI (RXF 393 renal) was 80.4 µM, the TGI (SF-268 CNS) was greater than 100 µM and the TGI (SF-295 CNS) was 73.7 µM. The TGI (SK-MEL-2 melanoma) was greater than 100 µM, the TGI (SK-MEL-28 melanoma) was greater than 100 µM and the TGI (SK-MEL-5 melanoma) was greater than 100 µM. It also gave a TGI (SK-OV-3 ovarian) greater than 100 µM, a TGI (SN12C renal) greater than 100 µM and a TGI (SNB-19 CNS) greater than 100 µM. The TGI (SNB-78 CNS) was 91.2 µM, the TGI (SR leukemia) was 65.5 µM and the TGI (SW-620 colon) was 79.9 µM. For the same compound, the TGI (TK-10 renal) was greater than 100 µM, the TGI (U251 CNS) was greater than 100 µM and the TGI (UACC-257 melanoma) was greater than 100 µM. It also gave a TGI (UACC-62 melanoma) greater than 100 µM, a TGI (UO-31 renal) greater than 100 µM and a TGI (XF 498 CNS) of 77.3 µM.
